Consider two compounds from US20150051295A1, “USE OF PROPANOL AND PROPENOL DERIVATIVES AS ANTIOXIDANTS” (MERCK PATENT GmbH, priority 2011, published 2015).

The assay can be described thus: Determination of the reducing (=antioxidative) property: TLC plate chromatographed, then sprayed with potassium permanganate solution. Conditions: substance in MTB ether on TLC silica gel 60F254 plate, heptane/ethyl acetate 2/1, then sprayed with freshly prepared KMnO4/NaOH solution. How it is done: Determination of the reducing (=antioxidative) property of 3-(4-tert-butyl phenyl)-1-(4-methoxyphenyl)prop-2-en-1-ol (substance 1a) and of 3-(4-tert-butylphenyl)-1-(4-methoxyphenyl)propan-1-ol (substance 2a): a little substance is dissolved in MTB ether and applied to a TLC plate (TLC silica gel 60F254 plate). The plate is chromatographed with heptane/ethyl acetate 2/1. […] The Rf values are at 0.61 (substance 2a) and 0.35 (substance 1a).

For the compound `COc1ccc(C(O)/C=C/c2ccc(C(C)(C)C)cc2)cc1` (centres unmarked) [substance 1a, 3-(4-tert-butylphenyl)-1-(4-methoxyphenyl)prop-2-en-1-ol], the “reducing (=antioxidative) property: decolourisation of potassium permanganate spray solution at substance spots” value is on record as “decolorises at the substance spots”. To `COc1ccc(C(O)CCc2ccc(C(C)(C)C)cc2)cc1` (centres unmarked) [substance 2a, 3-(4-tert-butylphenyl)-1-(4-methoxyphenyl)propan-1-ol] belongs “decolorises at the substance spots”.
